Test results reported in patent publication US7084172B2, “Bioprecursors for percutaneous application” (Pierre Fabre Dermo-Cosmetique, priority 2001, dated 2006).

System: HaCaT keratinocyte line
Assay: Enzymatic hydrolysis by esterase activity in HaCaT keratinocytes
Assay type: in vitro ADME, human
Experimental: 150 μl of a 1 mM solution in dimethyl sulphoxide (DMSO) are placed in a dish containing an HaCaT keratinocyte line (75 cm^2) in 15 ml of serum alone. The cells are placed in the incubator at 37° C. for 24 hours. The medium is extracted with 15 ml of ethyl acetate. The organic phase is then isolated and evaporated off.
The cells are extracted by sonication into 2×15 ml of an ice-cold mixture consisting of chloroform and methanol (1:2.5). After centrifugation, the organic phase collected is evaporated to dryness. For each test, a control is performed on a dish containing cells and a substrate-free medium to take account of a possible chemical degradation of the substrate.
The presence of esterase activity in the human keratinocytes is checked by means of a substrate, 4-methylumbelliferyl palmitate. The precursor according to the invention, used as pseudosubstrate, is the tocopheryl retinyl succinate prepared according to example 1.

Degree of hydrolysis in 24 hours of incubation (150 μl of 1 mM DMSO solution in 15 ml serum, HaCaT keratinocytes, 37° C., 24 hours)	Degree of hydrolysis in 24 hours of incubation (human, 24 h, 10 µM)	SMILES
2.7% ± 2%		CCCCCCCCCCCCCCCC(=O)Oc1ccc2c(C)cc(=O)oc2c1 [4-Methylumbelliferyl palmitate, 4-methylumbelliferyl palmitate]
	5% ± 3%	CC1=C(/C=C/C(C)=C/C=C/C(C)=C/COC(=O)CCC(=O)Oc2c(C)c(C)c3c(c2C)CCC(C)(CCCC(C)CCCC(C)CC(C)C)O3)C(C)(C)CCC1 (centres unmarked) [Tocopheryl retinyl succinate, O-(4-Oxo-4-{[2,5,7,8-tetramethyl-2-(4,8,12-trimethyltridecyl)-3,4-dihydro-2H-chromen-6-yl]oxy}butanoyl)retinol]
